23 compounds from patent US8012980B2, “Isoquinolinone derivatives” (AstraZeneca AB, priority 2008, dated 2011) can be followed below.

Structures are written as SMILES.

In the first assay the target is T1, human active recombinant p38 (p38α) (Homo sapiens, UniProt Q16539).
T1 construct: 6His
T1 sequence (Q16539 whole entry): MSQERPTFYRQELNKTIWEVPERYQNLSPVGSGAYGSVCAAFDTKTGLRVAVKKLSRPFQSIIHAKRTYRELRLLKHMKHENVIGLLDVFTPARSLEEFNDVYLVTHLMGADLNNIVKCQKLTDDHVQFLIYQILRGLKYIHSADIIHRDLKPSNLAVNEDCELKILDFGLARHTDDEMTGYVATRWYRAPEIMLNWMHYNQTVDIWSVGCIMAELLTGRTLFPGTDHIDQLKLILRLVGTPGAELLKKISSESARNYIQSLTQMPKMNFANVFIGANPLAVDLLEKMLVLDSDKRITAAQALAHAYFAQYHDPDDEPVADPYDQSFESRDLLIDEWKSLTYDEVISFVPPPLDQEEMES
Briefly: p38 Alpha Enzyme Assay (AlphaScreen, biotinylated-ATF2 substrate). The class given is biochemical. As to conditions: means of replicate determinations; pre-incubated for 4 hours at 37° C.; SD of assay between 0.2 and 0.3 log units. As for the experimental part:
The ability of the compounds of formula (I) to inhibit p38 kinase may be determined using the following biological assay:
Enzyme assays were performed in polypropylene 96 well plates. The following solutions were added to each well; 10 μL of compound dilutions in assay buffer (20 mM HEPES pH 7.4, containing 20 mM magnesium acetate, 0.005% (w/v) Tween-20, 10 mM DTT) containing 1% (v/v) DMSO or assay buffer containing 1% (v/v) DMSO alone, 70 μL of assay buffer containing 36 nM substrate (biotinylated-ATF2) and 10 μL of an appropriate dilution of human active recombinant p38-6H is tagged. Depending on batch of p38, an appropriate dilution was typically a 5 nM solution to give a final enzyme concentration of 0.5 nM. At this stage, background control wells also received 50 μL of AlphaScreen quench buffer (10 mM HEPES pH 7.4 containing 100 mM EDTA, 0.2% (w/v) bovine serum albumin). The plate was covered, pre-incubated for 4 hours at 37° C. and the enzyme reaction initiated by addition of 10 μL 1 mM ATP. After incubation for a further 45 minutes at 37° C., the reaction was stopped by addition of 50 μL quench reagent and 50 μL of the quenched reaction mixture transferred to an opaque, white 96-well plate. Detection reagent, 25 μL of 10 mM HEPES pH 7.4 containing 100 mM EDTA, 0.2% (w/v) bovine serum albumin, 0.3 nM anti phosphoATF2 antibody and 25 μg/mL of AlphaScreen protein A acceptor and donor beads' (PerkinElmer Inc.), was added to all wells in a darkened room, the plate sealed and left in the dark for at least 5 hours before AlphaScreen readings were taken using a Perkin Elmer EnVision reader. Total, uninhibited activity was determined from assays performed in each assay plate. The mean control in the absence of p38 activity was subtracted from each well. Data were expressed as percent inhibition of total activity using equation 1. Percent Inhibition=100*(1−Test/Control) Eq.1 Where . . . Test=p38 kinase activity in the presence of compound Control=p38 kinase activity in the absence of compound.
pIC50 is defined as the logarithm of the reciprocal of the concentration of compound required for 50% reduction in total p38 kinase activity.
The standard deviation of the p38 enzyme inhibition assay is between 0.2 and 0.3 log units.
(In general: Bead proximity is the source of the signal in Alpha formats.)
On to `Cc1c(F)cc(C(=O)NC2CC2)cc1-c1ccc2c(=O)n(CC(C)(C)CO)cc(CN3CCN[C@H](CO)C3)c2c1` [Example 17, N-Cyclopropyl-3-fluoro-5-(2-(3-hydroxy-2,2-dimethylpropyl)-4-(((3S)-3-(hydroxymethyl)piperazin-1-yl)methyl)-1-oxo-1,2-dihydroisoquinolin-6-yl)-4-methylbenzamide], for which the “p38α inhibition Mean pIC50” value is 9.6.

Staying with this assay, now noted: means of replicate determinations; pre-incubated for 4 hours at 37° C.; SD of assay between 0.2 and 0.3 log units; read-out: p38α inhibition Mean pIC50 (converted).
Turning to `Cc1c(F)cc(C(=O)NC2CC2)cc1-c1ccc2c(=O)n(CC(C)(C)CO)cc(C(C)N3CCNCC3)c2c1` (racemic) [Example 38, N-Cyclopropyl-3-fluoro-5-[2-(3-hydroxy-2,2-dimethylpropyl)-1-oxo-4-(1-piperazin-1-ylethyl)-1,2-dihydroisoquinolin-6-yl]-4-methylbenzamide racemate], the IC50 was 0.2 nM.

As for `Cc1c(F)cc(C(=O)NC2CC2)cc1-c1ccc2c(=O)n(CC(C)(C)CO)cc(C(C)N3CCNCC3)c2c1` (single isomer, unassigned) [Example 39, N-Cyclopropyl-3-fluoro-5-[2-(3-hydroxy-2,2-dimethylpropyl)-1-oxo-4-(1-piperazin-1-ylethyl)-1,2-dihydroisoquinolin-6-yl]-4-methylbenzamide], the IC50 is 0.631 nM.

In the case of `Cc1c(F)cc(C(=O)NC2CC2)cc1-c1ccc2c(=O)n(CC(C)(C)CO)cc(C(C)N3CCNCC3)c2c1` (single isomer, unassigned) [Example 40, N-Cyclopropyl-3-fluoro-5-[2-(3-hydroxy-2,2-dimethylpropyl)-1-oxo-4-(1-piperazin-1-ylethyl)-1,2-dihydroisoquinolin-6-yl]-4-methylbenzamide], the IC50 is 0.0794 nM.

Turning to `Cc1c(F)cc(C(=O)NC2CC2)cc1-c1ccc2c(=O)n(CC(C)(C)CO)cc(CN3CCNCC3)c2c1` [Example 1, N-Cyclopropyl-3-fluoro-5-[2-(3-hydroxy-2,2-dimethylpropyl)-1-oxo-4-(piperazin-1-ylmethyl)-1,2-dihydroisoquinolin-6-yl]-4-methylbenzamide], the IC50 was 0.126 nM.

As to `Cc1c(F)cc(C(=O)NC2CC2)cc1-c1ccc2c(=O)n(CC(C)(C)CO)cc(CN3CCCN(C)CC3)c2c1` [Example 2, N-Cyclopropyl-3-fluoro-5-{2-(3-hydroxy-2,2-dimethylpropyl)-4-[(4-methyl-1,4-diazepan-1-yl)methyl]-1-oxo-1,2-dihydroisoquinolin-6-yl}-4-methylbenzamide], the IC50 is 0.251 nM.

With `Cc1c(F)cc(C(=O)NC2CC2)cc1-c1ccc2c(=O)n(CCCO)cc(CN3CCN[C@H](CO)C3)c2c1` [Example 3, N-Cyclopropyl-3-fluoro-5-(4-(((3S)-3-(hydroxymethyl)piperazin-1-yl)methyl)-2-(3-hydroxypropyl)-1-oxo-1,2-dihydroisoquinolin-6-yl)-4-methylbenzamide], the IC50 is 0.158 nM.

For `Cc1c(F)cc(C(=O)NC2CC2)cc1-c1ccc2c(=O)n(CCCO)cc(CN3CCN[C@@H](C)C3)c2c1` [Example 4, N-Cyclopropyl-3-fluoro-5-(2-(3-hydroxypropyl)-4-(((3S)-3-methylpiperazin-1-yl)methyl)-1-oxo-1,2-dihydroisoquinolin-6-yl)-4-methylbenzamide], the IC50 is 0.501 nM.

Consider `Cc1c(F)cc(C(=O)NC2CC2)cc1-c1ccc2c(=O)n(CCO)cc(CN3CCNCC3)c2c1` [Example 5, N-Cyclopropyl-3-fluoro-5-(2-(2-hydroxyethyl)-1-oxo-4-(piperazin-1-ylmethyl)-1,2-dihydroisoquinolin-6-yl)-4-methylbenzamide], for which the IC50 was 0.2 nM.

On to `Cc1c(F)cc(C(=O)NC2CC2)cc1-c1ccc2c(=O)n(CCO)cc(CN3CCN[C@@H](C)C3)c2c1` [Example 6], for which the IC50 was 1 nM.

On to `Cc1c(F)cc(C(=O)NC2CC2)cc1-c1ccc2c(=O)n(CCO)cc(CN3CCCN(C)CC3)c2c1` [Example 7, N-Cyclopropyl-3-fluoro-5-(2-(2-hydroxyethyl)-4-((4-methyl-1,4-diazepan-1-yl)methyl)-1-oxo-1,2-dihydroisoquinolin-6-yl)-4-methylbenzamide], for which the IC50 is 0.501 nM.

In the case of `Cc1c(F)cc(C(=O)NC2CC2)cc1-c1ccc2c(=O)n(CCCCO)cc(CN3CCCN(C)CC3)c2c1` [Example 8, N-Cyclopropyl-3-fluoro-5-{2-(4-hydroxybutyl)-4-[(4-methyl-1,4-diazepan-1-yl)methyl]-1-oxo-1,2-dihydroisoquinolin-6-yl}-4-methylbenzamide], the IC50 is 0.251 nM.

In the case of `Cc1c(F)cc(C(=O)NC2CC2)cc1-c1ccc2c(=O)n(CC[C@H](C)O)cc(CN3CCNCC3)c2c1` [Example 9, N-Cyclopropyl-3-fluoro-5-{2-[(3S)-3-hydroxybutyl]-1-oxo-4-(piperazin-1-ylmethyl)-1,2-dihydroisoquinolin-6-yl}-4-methylbenzamide], the IC50 was 1.58 nM.

For the compound `Cc1c(F)cc(C(=O)NC2CC2)cc1-c1ccc2c(=O)n(CCCO)cc(CN3CCNCC3)c2c1` [Example 10, N-Cyclopropyl-3-fluoro-5-[2-(3-hydroxypropyl)-1-oxo-4-(piperazin-1-ylmethyl)-1,2-dihydroisoquinolin-6-yl]-4-methylbenzamide], the IC50 is 0.0794 nM.

Regarding `Cc1c(F)cc(C(=O)NC2CC2)cc1-c1ccc2c(=O)n(CC(C)(C)CO)cc(CN3CCN[C@@H](CO)C3)c2c1` [Example 11, N-Cyclopropyl-3-fluoro-5-(2-(3-hydroxy-2,2-dimethylpropyl)-4-(((3R)-3-(hydroxymethyl)piperazin-1-yl)methyl)-1-oxo-1,2-dihydroisoquinolin-6-yl)-4-methylbenzamide], the IC50 is 0.158 nM.

Turning to `Cc1c(F)cc(C(=O)NC2CC2)cc1-c1ccc2c(=O)n(CC3(CO)CC3)cc(CN3CCN[C@@H](CO)C3)c2c1` [Example 12, N-Cyclopropyl-3-fluoro-5-(2-((1-(hydroxymethyl)cyclopropyl)methyl)-4-(((3R)-3-(hydroxymethyl)piperazin-1-yl)methyl)-1-oxo-1,2-dihydroisoquinolin-6-yl)-4-methylbenzamide], the IC50 is 0.398 nM.

Regarding `COCCCn1cc(CN2CCN[C@@H](CO)C2)c2cc(-c3cc(C(=O)NC4CC4)cc(F)c3C)ccc2c1=O` [Example 13], the IC50 is 0.501 nM.

As for `Cc1c(F)cc(C(=O)NC2CC2)cc1-c1ccc2c(=O)n(CCC(C)(C)O)cc(CN3CCN[C@@H](CO)C3)c2c1` [Example 14, N-Cyclopropyl-3-fluoro-5-(2-(3-hydroxy-3-methylbutyl)-4-(((3R)-3-(hydroxymethyl)piperazin-1-yl)methyl)-1-oxo-1,2-dihydroisoquinolin-6-yl)-4-methylbenzamide], the IC50 was 0.501 nM.

As for `Cc1c(F)cc(C(=O)NC2CC2)cc1-c1ccc2c(=O)n(CC3(CO)CC3)cc(CN3CCN[C@H](CO)C3)c2c1` [Example 15, N-Cyclopropyl-3-fluoro-5-(2-((1-(hydroxymethyl)cyclopropyl)methyl)-4-(((3S)-3-(hydroxymethyl)piperazin-1-yl)methyl)-1-oxo-1,2-dihydroisoquinolin-6-yl)-4-methylbenzamide], the IC50 is 0.501 nM.

For `Cc1c(F)cc(C(=O)NC2CC2)cc1-c1ccc2c(=O)n(CC3(CO)CC3)cc(CN3CCNC[C@@H]3CO)c2c1` [Example 16, N-Cyclopropyl-3-fluoro-5-(2-((1-(hydroxymethyl)cyclopropyl)methyl)-4-(((2R)-2-(hydroxymethyl)piperazin-1-yl)methyl)-1-oxo-1,2-dihydroisoquinolin-6-yl)-4-methylbenzamide], the IC50 is 0.251 nM.

Regarding `Cc1c(F)cc(C(=O)NC2CC2)cc1-c1ccc2c(=O)n(C[C@H](C)CO)cc(CN3CCNCC3)c2c1` [Example 18, N-Cyclopropyl-3-fluoro-5-{2-[(2S)-3-hydroxy-2-methylpropyl]-1-oxo-4-(piperazin-1-ylmethyl)-1,2-dihydroisoquinolin-6-yl}-4-methylbenzamide], the IC50 was 0.794 nM.

Regarding `Cc1c(F)cc(C(=O)NC2CC2)cc1-c1ccc2c(=O)n(CC3(CO)CC3)cc(CN3CCNCC3)c2c1` [Example 19, N-Cyclopropyl-3-fluoro-5-[2-{[1-(hydroxymethyl)cyclopropyl]methyl}-1-oxo-4-(piperazin-1-ylmethyl)-1,2-dihydroisoquinolin-6-yl]-4-methylbenzamide], the IC50 was 0.398 nM.

As to `Cc1c(F)cc(C(=O)NC2CC2)cc1-c1ccc2c(=O)n(C[C@@H](C)CO)cc(CN3CCNCC3)c2c1` [Example 20, N-Cyclopropyl-3-fluoro-5-{2-[(2R)-3-hydroxy-2-methylpropyl]-1-oxo-4-(piperazin-1-ylmethyl)-1,2-dihydroisoquinolin-6-yl}-4-methylbenzamide], the IC50 is 0.794 nM.
